Measurements taken from patent US20040121316A1 (priority 2002, published 2004).

What was measured:
mutant HIV-1 I84V/L90M = assay: Resistance Evaluation, I84V/L90M fold change; format: cell-based; set-up: scale not given here
[1] = tested on: wild-type HIV-1 strain IIIB; assay: microbe, parasite or virus in culture; format: cell-based; set-up: scale not given here; conditions: for EC50: Human immunodeficiency virus 1, IIIB
[2] = molecular target: T1, recombinant HIV-1 protease (Human immunodeficiency virus type 1 group M subtype B, UniProt P04585); assay: biochemical
T1 construct: Enzyme: recombinant HIV-1 protease expressed in E.Coli; purchased Bachem California, Inc. H-9040; host or cells: E. coli

SMILES: COc1ccc(S(=O)(=O)N(CC(C)C)CC(O)C(CNc2ccc(CP(=O)(O)O)cc2)NC(=O)OC2COC3OCCC23)cc1 (stereo not shown)
- I84V/L90M fold change (mutant HIV-1 I84V/L90M; EC50 of mutant I84V/L90M relative to wild type, class symbols): + (>3 to ≦10)
- EC50 [1]: 0.5 to 5 µM

SMILES: CCOP(=O)(CCN1CCN(CC(NC(=O)OC2COC3OCCC23)C(O)CN(CC(C)C)S(=O)(=O)c2ccc(OC)cc2)CC1)OCC (stereo not shown)
- Ki [2]: + +

SMILES: CCOC(=O)C(C)OP(=O)(CN1CC=C(CC(NC(=O)OC2COC3OCCC23)C(O)CN(CC(C)C)S(=O)(=O)c2ccc(OC)cc2)CC1)Oc1ccccc1 (stereo not shown)
- I84V/L90M fold change (mutant HIV-1 I84V/L90M; mutant I84V/L90M vs wild type): − (≦3)
- EC50 (nM) [1]: + + +

SMILES: COc1ccc(S(=O)(=O)N(CCN2CCOCC2)CC(O)C(Cc2ccc(OCP(=O)(O)O)cc2)NC(=O)OC2COC3OCCC23)cc1 (stereo not shown)
- I84V/L90M fold change (mutant HIV-1 I84V/L90M; mutant I84V/L90M vs wild type): + (>3 to ≦10)
- EC50 [1]: > 5 µM

SMILES: Cc1cccc(C)c1OCC(=O)NC(Cc1ccc(OCP(=O)(O)O)cc1)C(O)CN(CC(C)C)S(=O)(=O)c1ccc(N)cc1 (stereo not shown)
- I84V/L90M fold change (mutant HIV-1 I84V/L90M; mutant I84V/L90M vs wild type): − (≦3)
- EC50 [1]: > 5 µM

SMILES: Cc1ccc(C(=O)NC(Cc2ccc(OCP(=O)(O)O)cc2)C(O)CN(CC(C)C)S(=O)(=O)c2ccc(N)cc2)cc1O (stereo not shown)
- I84V/L90M fold change (mutant HIV-1 I84V/L90M; mutant I84V/L90M vs wild type): + (>3 to ≦10)
- EC50 [1]: > 5 µM

SMILES: CC(C)CN(CC(O)C(Cc1ccc(OCP(=O)(O)O)cc1)NC(=O)OC1COC2OCCC12)S(=O)(=O)c1ccc(N)cc1 (stereo not shown)
- I84V/L90M fold change (mutant HIV-1 I84V/L90M; mutant I84V/L90M vs wild type): − (≦3)
- EC50 [1]: > 5 µM

SMILES: CCOP(=O)(COc1ccc(CC(NC(=O)OC2COC3OCCC23)C(O)CN(CC(C)C)S(=O)(=O)c2ccc(N)cc2)cc1)OCC (stereo not shown)
- I84V/L90M fold change (mutant HIV-1 I84V/L90M; mutant I84V/L90M vs wild type): − (≦3)

SMILES: CC(C)CN(CC(O)C(Cc1ccc(OCP(=O)(O)O)cc1)NC(=O)OC1COC2OCCC12)S(=O)(=O)c1cccc(N)c1 (stereo not shown)
- I84V/L90M fold change (mutant HIV-1 I84V/L90M; mutant I84V/L90M vs wild type): − (≦3)
- EC50 [1]: 0.5 to 5 µM

SMILES: CC(C)CN(CC(O)C(Cc1ccc(OCP(=O)(OCc2ccccc2)OCc2ccccc2)cc1)NC(=O)OC1COC2OCCC12)S(=O)(=O)c1ccccc1 (stereo not shown)
- I84V/L90M fold change (mutant HIV-1 I84V/L90M; mutant I84V/L90M vs wild type): + (>3 to ≦10)

SMILES: CC(C)CN(CC(O)C(Cc1ccc(OCP(=O)(OCc2ccccc2)OCc2ccccc2)cc1)NC(=O)OC1COC2OCCC12)S(=O)(=O)c1ccc(F)cc1 (stereo not shown)
- I84V/L90M fold change (mutant HIV-1 I84V/L90M; mutant I84V/L90M vs wild type): + (>3 to ≦10)

SMILES: CC(C)CN(CC(O)C(Cc1ccc(OCP(=O)(OCc2ccccc2)OCc2ccccc2)cc1)NC(=O)OC1COC2OCCC12)S(=O)(=O)c1ccc(C(F)(F)F)cc1 (stereo not shown)
- I84V/L90M fold change (mutant HIV-1 I84V/L90M; mutant I84V/L90M vs wild type): − (≦3)

SMILES: CC(C)CN(CC(O)C(Cc1ccc(OCP(=O)(OCc2ccccc2)OCc2ccccc2)cc1)NC(=O)OC1COC2OCCC12)S(=O)(=O)c1ccc(C#N)cc1 (stereo not shown)
- I84V/L90M fold change (mutant HIV-1 I84V/L90M; mutant I84V/L90M vs wild type): − (≦3)

SMILES: Cc1ccc(C(=O)N[C@@H](Cc2ccc(OCP(=O)(OCc3ccccc3)OCc3ccccc3)cc2)[C@H](O)CN(CC(C)C)S(=O)(=O)c2ccc(N)cc2)cc1O
- Ki (pM) [2]: + +

SMILES: CCCCOC(=O)C(C)OP(=O)(COc1ccc(C[C@H](NC(=O)O[C@H]2CO[C@H]3OCC[C@H]32)[C@H](O)CN(CC(C)C)S(=O)(=O)c2cccc(N)c2)cc1)Oc1ccccc1 (stereo partly shown)
- I84V/L90M fold change (mutant HIV-1 I84V/L90M; mutant I84V/L90M vs wild type): − (≦3)
- EC50 (nM) [1]: + +

SMILES: CC(C)CN(CC(O)C(Cc1ccccc1)NC(=O)OC1COC2OCCC12)S(=O)(=O)c1ccc(O)cc1 (stereo not shown)
- I84V/L90M fold change (mutant HIV-1 I84V/L90M; mutant I84V/L90M vs wild type): − (≦3)

SMILES: CC(C)CN(CC(O)C(Cc1ccccc1)NC(=O)OC1COC2OCCC12)S(=O)(=O)c1ccc(OCP(=O)(O)O)cc1 (stereo not shown)
- I84V/L90M fold change (mutant HIV-1 I84V/L90M; mutant I84V/L90M vs wild type): − (≦3)
- EC50 [1]: 0.5 to 5 µM

SMILES: CC(C)CN(CC(O)C(Cc1ccccc1)NC(=O)OC1COC2OCCC12)S(=O)(=O)c1ccc(OCP(=O)(O)Oc2ccccc2)cc1 (stereo not shown)
- EC50 [1]: > 5 µM
- Ki (pM) [2]: + +

SMILES: CC(C)CN(CC(O)C(Cc1ccccc1)NC(=O)OC1COC2OCCC12)S(=O)(=O)c1cccc(O)c1 (stereo not shown)
- I84V/L90M fold change (mutant HIV-1 I84V/L90M; mutant I84V/L90M vs wild type): + (>3 to ≦10)

SMILES: CC(C)CN(CC(O)C(Cc1ccccc1)NC(=O)OC1COC2OCCC12)S(=O)(=O)c1cccc(OCP(=O)(O)O)c1 (stereo not shown)
- I84V/L90M fold change (mutant HIV-1 I84V/L90M; mutant I84V/L90M vs wild type): + (>3 to ≦10)

SMILES: COc1ccc(S(=O)(=O)N(CC(C)C)CC(O)C(Cc2ccccc2)NC(=O)OC2COC3OCCC23)cc1O (stereo not shown)
- I84V/L90M fold change (mutant HIV-1 I84V/L90M; mutant I84V/L90M vs wild type): − (≦3)

SMILES: COc1ccc(S(=O)(=O)N(CC(C)C)CC(O)C(Cc2ccccc2)NC(=O)OC2COC3OCCC23)cc1OCP(=O)(O)O (stereo not shown)
- I84V/L90M fold change (mutant HIV-1 I84V/L90M; mutant I84V/L90M vs wild type): − (≦3)

SMILES: CCOP(=O)(COc1cc(S(=O)(=O)N(CC(C)C)CC(O)C(Cc2ccccc2)NC(=O)OC2COC3OCCC23)ccc1OC)OCC (stereo not shown)
- I84V/L90M fold change (mutant HIV-1 I84V/L90M; mutant I84V/L90M vs wild type): + (>3 to ≦10)

SMILES: CCOP(=O)(COc1cc(S(=O)(=O)N(CC(C)C)CC(O)C(Cc2ccccc2)NC(=O)OC2COC3OCCC23)ccc1O)OCC (stereo not shown)
- I84V/L90M fold change (mutant HIV-1 I84V/L90M; mutant I84V/L90M vs wild type): − (≦3)
